In patent US7645802B2 (Biovail Laboratories International SRL., priority 2005, dated 2010):
Where a name gives a salt, the structure may show the parent alone.

Columns and labels:
CD-1 mice = test: clonic convulsions in CD-1 mice after intraperitoneal dosing (range finding and main study)
Procedure: Two studies were performed to investigate the relative proconvulsant properties of the two bupropion salts. In the first instance a range finding study was performed to establish the appropriate dose range for the main study. In each study the mice were divided into two dose groups and injected intraperitoneally with either bupropion HCl or bupropion HBr.
A clonic convulsion was defined as a stiffening of the animal followed by jerking movements. The convulsions were classified as mild, moderate and severe according to the following descriptions.
Mild: Head and tail slightly extended and little jerking
Moderate: Head and tail fully extended with some jerking
Severe: Head and tail fully extended with strong jerking
Post-treatment findings recorded included continuous observation for 120 minutes for evidence of clonic convulsions, and intermittent (fixed) observations for 24 hours for other signs, including tonic convulsions, movement, activity, paralysis, gait and evidence of recovery.

[1] = forced degradation of bupropion HBr and HCl in the presence of excipients at 55° C., 55° C./100% RH, 100° C., 105° C. (incl. TGA at 100° C.); type: physicochemical; details: in the presence of excipients, 55° C., 55° C./100% RH, 100° C., 105° C.
Procedure: Further forced degradation studies were carried out at 55° C., at 55° C. and 100% relative humidity, at 100° C., and at 105° C. on both the HCl and HBr Bupropion salts in the presence of excipients. […] FIG. 53 is a graph showing the loss of each salt over time in a TGA experiment at 100° C.

[2] = Closed vial / closed glass bottle stability (40° C./75% RH) of bupropion salt APIs; type: physicochemical
[3] = Solubility and other physical properties, Bupropion HBr vs Bupropion HCl; details: HCl from Erregierre, HBr from Chemi; hydrobromide
[4] = Dynamic Vapour Sorption (DVS) analysis
mice = test: Proconvulsant properties of bupropion salts: clonic convulsions in mice; details: for Mean Number of Convulsions/Mouse / Total Number of convulsions: N=13
Procedure: Number of convulsions and the intensity of the convulsions were recorded.
Mild: Head and tail slightly extended and little jerking; Moderate: Head and tail fully extended with some jerking; Severe: Head and tail fully extended with strong jerking. […] Step 2: To further investigate the patterns of convulsion occurrence using loglinear Poisson regression models. The number of convulsions was analyzed using the loglinear Poisson regression models with formulation, dose, and severity as predictors.

[5] = 100 mg/kg i.p., pooled data N = 13/dose group, hydrobromide
[6] = 150 mg/kg i.p., pooled data N = 13/dose group, hydrobromide
[7] = 10-Days, closed glass bottle 40 C./75% RH, HBr Lot# STN07491, HCl Lot# STN06973, hydrobromide
[8] = 10 Days, closed glass bottle 40 C./75% RH, HBr Lot# STN07492, HCl Lot# STN06978, hydrobromide
[9] = 14-Days, closed glass bottle 40° C./75% RH, HBr Lot# STN07492, HCl L# STN06973, hydrobromide
[10] = 24 Days, closed glass bottle 40° C./75% RH, HBr Lot# STN07492, HCl L# STN06973, hydrobromide
[11] = Initial, closed glass bottle 40 C./75% RH, HBr Lot# STN07491, HCl Lot# STN06973, hydrobromide
[12] = Initial, closed glass bottle 40 C./75% RH, HBr Lot# STN07492, HCl Lot# STN06978, hydrobromide
[13] = Initial, closed glass bottle 40° C./75% RH, HBr Lot# STN07492, HCl L# STN06973, hydrobromide
[14] = 150 mg/kg, Moderate, hydrobromide
[15] = 150 mg/kg, Severe, hydrobromide

CC(NC(C)(C)C)C(=O)c1cccc(Cl)c1 (stereo not drawn) [Bupropion HBr, bupropion hydrobromide]
solubility (physchem; organic solvent or mixture, EtOH): 92 mg/mL | solubility (physchem; organic solvent or mixture, IPA): 12 mg/mL | solubility (physchem; water): 143 mg/mL | Mean Intensity of Convulsions/Mouse % of Total: Mild (CD-1 mice; [5]): 90.0 % of Total | Mean Intensity of Convulsions/Mouse % of Total: Moderate (CD-1 mice; [5]): 10.0 % of Total | Mean Intensity of Convulsions/Mouse % of Total: Severe (CD-1 mice; [5]): 0.0 % of Total | Mean Number of Convulsions/Mouse (CD-1 mice; [5]): 0.8 | numbers of mice that had convulsions in the dose group (CD-1 mice; [5]): 3/13 | Mean Number of Convulsions/Mouse (CD-1 mice; 100 mg/kg i.p., range-finding study, N = 3/dose group, hydrobromide): 0 | numbers of mice that had convulsions in the dose group (CD-1 mice; 100 mg/kg i.p., second (main) study, N = 10/dose group): 3/10 | Mean Number of Convulsions/Mouse (CD-1 mice; 100 mg/kg i.p., second (main) study, N = 10/dose group, hydrobromide): 1.0 | Mean Intensity of Convulsions/Mouse % of Total: Mild (CD-1 mice; [6]): 21.3 % of Total | Mean Intensity of Convulsions/Mouse % of Total: Moderate (CD-1 mice; [6]): 25.7 % of Total | Mean Intensity of Convulsions/Mouse % of Total: Severe (CD-1 mice; [6]): 53.0 % of Total | Mean Number of Convulsions/Mouse (CD-1 mice; [6]): 46.6 | Mean Number of Convulsions/Mouse (CD-1 mice; 150 mg/kg i.p., range-finding study, N = 3/dose group, hydrobromide): 11.0 | Mean Number of Convulsions/Mouse (CD-1 mice; 150 mg/kg i.p., second (main) study, N = 10/dose group, hydrobromide): 57.3 | numbers of mice that had convulsions in the dose group (CD-1 mice; […] i.p., pooled data N = 13/dose group, hydrobromide): 11/13 | numbers of mice that had convulsions in the dose group (CD-1 mice; […] i.p., second (main) study, N = 10/dose group, hydrobromide): 8/10 | recovery from other treatment-related signs (CD-1 mice; range finding study): tendency to recover more quickly | threshold for tonic convulsions (CD-1 mice; range finding study, i.p., hydrobromide): 125 mg/kg | stability / degradation compared to bupropion HCl [1]: significant improvements in stability compared to bupropion HCl | % Assay [2, 7]: 98.2% | % Impurities 3-CBZ [2, 7]: 0.070% | % Impurities 20U78/dilu [2, 7]: 0.051% | % Impurities 827U76 [2, 7]: 0.039% | % Impurities 852U77 [2, 7]: 0.125% | % Impurities Total (%) [2, 7]: 0.42% | % Impurities Total unknown [2, 7]: 0.129% | % Assay [2, 8]: 99.2% | % Impurities 3-CBZ [2, 8]: 0.031% | % Impurities 20U78/dilu [2, 8]: 0.044% | % Impurities 852U77 [2, 8]: 0.055% | % Impurities Total (%) [2, 8]: 0.24% | % Impurities Total unknown [2, 8]: 0.15% | % Impurities 827U76 ([2]; 14-Days, closed glass bottle 40° C./75% RH, HBr Lot# STN07492, HCl L# STN06973): 0.012% | % Assay [2, 9]: 98.8% | % Impurities 3-CBZ [2, 9]: 0.015% | % Impurities 20U78/dilu [2, 9]: 0.048% | % Impurities 852U77 [2, 9]: 0.058% | % Impurities Total (%) [2, 9]: 0.23% | % Impurities Total unknown [2, 9]: 0.105% | % Assay [2, 10]: 99.5% | % Impurities 3-CBZ [2, 10]: 0.022% | % Impurities 20U78/dilu [2, 10]: 0.038% | % Impurities 827U76 [2, 10]: 0.016% | % Impurities 852U77 [2, 10]: 0.052% | % Impurities Total (%) [2, 10]: 0.23% | % Impurities Total unknown [2, 10]: 0.104% | % Assay [2, 11]: 99.5% | % Impurities 3-CBZ [2, 11]: 0.011% | % Impurities 20U78/dilu [2, 11]: 0.041% | % Impurities Total (%) [2, 11]: 0.17% | % Impurities Total unknown [2, 11]: 0.129% | % Assay [2, 12]: 99.6% | % Impurities 3-CBZ [2, 12]: 0.007% | % Impurities 20U78/dilu [2, 12]: 0.041% | % Impurities Total (%) [2, 12]: 0.23% | % Impurities Total unknown [2, 12]: 0.194% | % Assay [2, 13]: 99.6% | % Impurities 3-CBZ [2, 13]: 0.007% | % Impurities 20U78/dilu [2, 13]: 0.044% | % Impurities 852U77 [2, 13]: 0.009% | % Impurities Total (%) [2, 13]: 0.16% | % Impurities Total unknown [2, 13]: 0.098% | PS (Malvern) 10% [3]: 10% 72 μm | PS (Malvern) 50% [3]: 50% 245 μm | PS (Malvern) 90% [3]: 90% 657 μm | moisture content KF [3]: 0.00% | pH (aq. 0.5%) [3]: 5.92 | hygroscopicity (DVS, words) ([4]; 0% RH-90% RH): non-hygroscopic | maximum water uptake (DVS) ([4]; at 90% RH): 0.14 % weight | Mean Number of Convulsions/Mouse, cumulative (mice; 100 mg/kg, All, hydrobromide): 0.77 | Mean Number of Convulsions/Mouse (mice; 100 mg/kg, Mild, hydrobromide): 0.69 | Total Number of convulsions (mice; 100 mg/kg, Mild, hydrobromide): 9 | Mean Number of Convulsions/Mouse (mice; 100 mg/kg, Moderate): 0.08 | Mean Number of Convulsions/Mouse, cumulative (mice; 100 mg/kg, Severe + Moderate, hydrobromide): 0.08 | Mean Number of Convulsions/Mouse (mice; 100 mg/kg, Severe, 120 min observation, hydrobromide): 0.0 | Total Number of convulsions (mice; 100 mg/kg, Severe, hydrobromide): 0 | Mean Number of Convulsions/Mouse, cumulative (mice; 150 mg/kg, All, hydrobromide): 46.61 | Mean Number of Convulsions/Mouse (mice; 150 mg/kg, Mild, hydrobromide): 9.92 | Total Number of convulsions (mice; 150 mg/kg, Mild, hydrobromide): 129 | Mean Number of Convulsions/Mouse (mice; [14]): 12.00 | Total Number of convulsions (mice; [14]): 156 | Mean Number of Convulsions/Mouse, cumulative (mice; 150 mg/kg, Severe + Moderate, hydrobromide): 36.69 | Mean Number of Convulsions/Mouse (mice; [15]): 24.69 | Total Number of convulsions (mice; [15]): 321
